Data on twelve molecules can be found in US20260022143A1, “Cyclic Peptide Inhibitors of IL-23” (JANSSEN PHARMACEUTICA NV, priority 2022, published 2026).

Starred links: 1 amine or outer side, 2 acyl side, 3 side chain; linkers in the order of their positions; H or OH if unused. Positions of bridges follow the written chain, without caps; N, C: chain ends. Non-standard residues stand in square brackets, D forms with d. Residues, ends and D or L forms follow the SMILES beside them. Groups on a side chain read outwards from the residue. *: point of attachment. X56 = CCCCCCCCCCCC(=O)NCCOCCOCC(=O)NCCOCCOCC(=O)NCC[N+](C)(C)CC(=O)*; Me3N+(CH2)2O(CH2)2O(CH2)2CO = C[N+](C)(C)CCOCCOCCC(=O)*; CH2CH2OCH2CH2OCH2CH2NMe3+ = C[N+](C)(C)CCOCCOCC*; Trp(7-Me) = Cc1cccc2c(C[C@H](N)C(=O)O)c[nH]c12; Hexanoyl(6-NMe3+) = C[N+](C)(C)CCCCCC(=O)*; X20 = C[N+](C)(C)CC[C@H](N[*:1])C(=O)[*:2]; X73 = C[N+](C)(C)CCOCCOCCNC(=O)CCCCCCCC*; 2Nal = N[C@@H](Cc1ccc2ccccc2c1)C(=O)O; AEF = NCCOc1ccc(C[C@H](N)C(=O)O)cc1; X10 = C[N+](C)(C)C[C@H](CC(=O)O)N*; 3Pal = N[C@@H](Cc1cccnc1)C(=O)O; Lys(Me) = CNCCCC[C@H](N)C(=O)O; X69 = CN(CCOCC[N+](C)(C)C)CC*; NMeK = CN[C@@H](CCCCN)C(=O)O; Pen = CC(C)(S)[C@H](N)C(=O)O; Suc = O=C(CCC(=O)[*:2])[*:1]; X4 = COCCOCCCN(CCCOCCOC)CC*; X31 = N=C(N)NCCOCCC(=O)*; Thp = NC1(C(=O)O)CCOCC1; Dap = NC[C@H](N)C(=O)O; X3 = C[N+](C)(C)CCCCC*; Me2NCH2CH2 = CN(C)CC*; Sar = CNCC(=O)O

The nature of the data set: Exposed Polar Surface Area (EPSA). In kind it is physicochemical. As to conditions: SFC on Chirex 3014 column; sample 1 mM DMSO stock; read-out: EPSA. In outline:
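Chirex 3014 column, 35 °C, 4 mL/min; CO2/MeOH + 20 mM NH4 formate, 5→60% modifier at 20%/min. UV/MS detection. EPSA (Å^2) from retention time vs 8-standard calibration line; duplicates; 1 mM DMSO stock injected undiluted.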
As for `CC(=O)N(C)CCCC[C@@H]1NC(=O)[C@H](Cc2c[nH]c3c(C)cccc23)NC(=O)[C@H]([C@@H](C)O)NC(=O)[C@H](CC(=O)N(C)C)NC(=O)[C@@H](NC(=O)CCOCCOCC[N+](C)(C)C)C(C)(C)SSC(C)(C)[C@@H](C(=O)N[C@@H](Cc2ccc(OCCN(C)C)cc2)C(=O)N[C@@H](Cc2ccc3ccccc3c2)C(=O)NC2(C(=O)N[C@@H](CCCCN(C)C(C)=O)C(=O)N[C@@H](CC(N)=O)C(=O)N[C@@H](Cc3cccnc3)C(=O)N(C)CC(=O)N(C)C)CCOCC2)NC1=O` [compound 321, cPEG3aCO-Pen(3)-N(N(Me)2)-T-7MeW-K(NMeAc)-Pen(3)-AEF(N(Me)2)-2Nal-THP-K(NMeAc)-N-3Pya-Sar-CON(Me)2] ({Me3N+(CH2)2O(CH2)2O(CH2)2CO}-[Pen]D(NMe2)T[Trp(7-Me)][Lys(Me)](Ac)[Pen]Y(Me2NCH2CH2)[2Nal][Thp][Lys(Me)](Ac)N[3Pal][Sar]-NMe2; disulfide 1-6), the EPSA is 153 A^2.
For `CC(=O)N(C)CCCC[C@H](NC(=O)C1(NC(=O)[C@H](Cc2ccc3ccccc3c2)NC(=O)[C@H](Cc2ccc(OCCCCC[N+](C)(C)C)cc2)NC(=O)[C@H]2NC(=O)[C@H](COCCOCC[N+](C)(C)C)NC(=O)[C@H](Cc3c[nH]c4c(C)cccc34)NC(=O)[C@H]([C@@H](C)O)NC(=O)[C@H](CC(=O)N(C)C)NC(=O)[C@@H](NC(=O)CCOCCOCC[N+](C)(C)C)C(C)(C)SSC2(C)C)CCOCC1)C(=O)N[C@@H](CC(N)=O)C(=O)N[C@@H](Cc1cccnc1)C(=O)N(C)CC(=O)N(C)C` (relative stereo) [compound 247, cPEG3aCO-Pen(3)-N(N(Me)2)-T-7MeW-APEG2Ser(S*)-Pen(3)-TMAPF-2Nal-THP-K(NMeAc)-N-3Pya-Sar-CON(Me)2], the EPSA is 145 A^2.
For `CC(=O)N[C@@H]1C(=O)N[C@@H](CC[N+](C)(C)C)C(=O)N[C@@H]([C@@H](C)O)C(=O)N[C@@H](Cc2c[nH]c3c(C)cccc23)C(=O)N[C@@H](CCCCN(C)C(C)=O)C(=O)N[C@H](C(=O)N[C@@H](Cc2ccc(OCCOCCOCC[N+](C)(C)C)cc2)C(=O)N[C@@H](Cc2ccc3ccccc3c2)C(=O)NC2(C(=O)N[C@@H](CCCCN(C)C(C)=O)C(=O)N[C@@H](CC(N)=O)C(=O)N[C@@H](Cc3cccnc3)C(=O)N(C)CC(=O)N(C)C)CCOCC2)C(C)(C)SSC1(C)C` [compound 436] (Ac-[Pen][X20]T[Trp(7-Me)][Lys(Me)](Ac)[Pen]Y(CH2CH2OCH2CH2OCH2CH2NMe3+)[2Nal][Thp][Lys(Me)](Ac)N[3Pal][Sar]-NMe2; disulfide 1-6), the EPSA stood at 149 A^2.
In the case of `CC(=O)N(C)CCCC[C@@H]1NC(=O)[C@H](Cc2c[nH]c3c(C)cccc23)NC(=O)[C@H]([C@@H](C)O)NC(=O)[C@H](CC(=O)N(C)C)NC(=O)[C@@H](NC(=O)CCOCCOCC[N+](C)(C)C)C(C)(C)SSC[C@@H](C(=O)N[C@@H](Cc2ccc(OCCCCC[N+](C)(C)C)cc2)C(=O)N[C@@H](Cc2ccc3ccccc3c2)C(=O)NC2(C(=O)N[C@@H](CCCCN(C)C(C)=O)C(=O)N[C@@H](CC(N)=O)C(=O)N[C@@H](Cc3cccnc3)C(=O)N(C)CC(=O)N(C)C)CCOCC2)NC1=O` [compound 485, cPEG3aCO-Pen(3)-N(N(Me)2)-T-7MeW-K(NMeAc)-C(3)-TMAPF-2Nal-THP-K(NMeAc)-N-3Pya-Sar-CON(Me)2] ({Me3N+(CH2)2O(CH2)2O(CH2)2CO}-[Pen]D(NMe2)T[Trp(7-Me)][Lys(Me)](Ac)CY(X3)[2Nal][Thp][Lys(Me)](Ac)N[3Pal][Sar]-NMe2; disulfide 1-6) it was 163 A^2; in that of `CC(=O)NCCCC[C@@H]1NC(=O)[C@H](Cc2c[nH]c3c(C)cccc23)NC(=O)[C@H]([C@@H](C)O)NC(=O)[C@H](CC(N)=O)NC(=O)[C@@H](NC(=O)[C@@H](CCCCNC(=O)CCOCCOCC[N+](C)(C)C)NC(C)=O)C(C)(C)SSC(C)(C)[C@@H](C(=O)N[C@@H](Cc2ccc(OCCN)cc2)C(=O)N[C@@H](Cc2ccc3ccccc3c2)C(=O)NC2(C(=O)N[C@@H](CCC(=O)O)C(=O)N[C@@H](CC(N)=O)C(=O)N[C@@H](Cc3cccnc3)C(=O)N(C)CC(N)=O)CCOCC2)NC1=O` [compound 84] (Ac-[dK](Me3N+(CH2)2O(CH2)2O(CH2)2CO)[Pen]NT[Trp(7-Me)]K(Ac)[Pen][AEF][2Nal][Thp]EN[3Pal][Sar]-NH2; disulfide 2-7), 166 A^2; in that of `COCCOCCCN(CCCOCCOC)CCOc1ccc(C[C@H](NC(=O)[C@H]2NC(=O)[C@H](CCCCNC(C)=O)NC(=O)[C@H](Cc3c[nH]c4c(C)cccc34)NC(=O)[C@H]([C@@H](C)O)NC(=O)[C@H](CC(N)=O)NC(=O)[C@@H](NC(=O)CCCCC[N+](C)(C)C)C(C)(C)SSC2(C)C)C(=O)N[C@@H](Cc2ccc3ccccc3c2)C(=O)NC2(C(=O)N[C@@H](CNC(C)=O)C(=O)N[C@@H](CC(N)=O)C(=O)N[C@@H](Cc3cccnc3)C(=O)N(C)CC(N)=O)CCOCC2)cc1` [compound 205] ({Hexanoyl(6-NMe3+)}-[Pen]NT[Trp(7-Me)]K(Ac)[Pen]Y(X4)[2Nal][Thp][Dap](Ac)N[3Pal][Sar]-NH2; disulfide 1-6), 149 A^2.
Consider `CC(=O)NCCCC[C@@H]1NC(=O)[C@H](Cc2c[nH]c3c(C)cccc23)NC(=O)[C@H]([C@@H](C)O)NC(=O)[C@H](CC(N)=O)NC(=O)[C@@H](NC(=O)[C@@H](CCCCNC(=O)CCC(=O)N[C@@H](CC(=O)O)C[N+](C)(C)C)NC(C)=O)C(C)(C)SSC(C)(C)[C@@H](C(=O)N[C@@H](Cc2ccc(OCCN)cc2)C(=O)N[C@@H](Cc2ccc3ccccc3c2)C(=O)NC2(C(=O)N[C@@H](CCCCNC(C)=O)C(=O)N[C@@H](CC(N)=O)C(=O)N[C@@H](Cc3cccnc3)C(=O)N(C)CC(N)=O)CCOCC2)NC1=O` [compound 108] (Ac-[dK]([Suc-X10])[Pen]NT[Trp(7-Me)]K(Ac)[Pen][AEF][2Nal][Thp]K(Ac)N[3Pal][Sar]-NH2; disulfide 2-7), for which the EPSA was 173 A^2.
In the case of `CC(=O)NCCCC[C@@H]1NC(=O)[C@H](Cc2c[nH]c3c(C)cccc23)NC(=O)[C@H]([C@@H](C)O)NC(=O)[C@H](CC(N)=O)NC(=O)[C@@H](NC(=O)CCCCC[N+](C)(C)C)C(C)(C)SSC(C)(C)[C@@H](C(=O)N[C@@H](Cc2ccc(OCCNC(=O)CCOCCOCC[N+](C)(C)C)cc2)C(=O)N[C@@H](Cc2ccc3ccccc3c2)C(=O)NC2(C(=O)N[C@@H](CNC(C)=O)C(=O)N[C@@H](CC(N)=O)C(=O)N[C@@H](Cc3cccnc3)C(=O)N(C)CC(N)=O)CCOCC2)NC1=O` [compound 192] it was 149 A^2; in that of `CCCCCCCCCCCC(=O)NCCOCCOCC(=O)NCCOCCOCC(=O)NCC[N+](C)(C)CC(=O)NCCCC[C@@H](C(N)=O)N(C)C(=O)[C@H](Cc1cccnc1)NC(=O)[C@H](CC(N)=O)NC(=O)[C@H](CCCCN(C)C(C)=O)NC(=O)C1(NC(=O)[C@H](Cc2ccc3ccccc3c2)NC(=O)[C@H](Cc2ccc(OCCCCC[N+](C)(C)C)cc2)NC(=O)[C@H]2NC(=O)[C@H](CCCCNC(C)=O)NC(=O)[C@H](Cc3c[nH]c4c(C)cccc34)NC(=O)[C@H]([C@@H](C)O)NC(=O)[C@H](CC(=O)N(C)C)NC(=O)[C@@H](NC(=O)CCOCCOCC[N+](C)(C)C)C(C)(C)SSC2(C)C)CCOCC1` [compound 407, cPEG3aCO-Pen(3)-N(N(Me)2)-T-7MeW-K(Ac)-Pen(3)-TMAPF-2Nal-THP-K(NMeac)-N-3Pya-NMeK(SP6PEG2PEG2C12)-CONH2] ({Me3N+(CH2)2O(CH2)2O(CH2)2CO}-[Pen]D(NMe2)T[Trp(7-Me)]K(Ac)[Pen]Y(X3)[2Nal][Thp][Lys(Me)](Ac)N[3Pal][NMeK](X56)-NH2; disulfide 1-6), 151 A^2.
As to `CC(=O)N(C)CCCC[C@@H]1NC(=O)[C@H](Cc2c[nH]c3c(C)cccc23)NC(=O)[C@H]([C@@H](C)O)NC(=O)[C@H](CC(=O)N(C)C)NC(=O)[C@@H](NC(=O)CCOCCOCC[N+](C)(C)C)C(C)(C)SSC(C)(C)[C@@H](C(=O)N[C@@H](Cc2ccc(OCCN(C)CCOCC[N+](C)(C)C)cc2)C(=O)N[C@@H](Cc2ccc3ccccc3c2)C(=O)NC2(C(=O)N[C@@H](CCCCN(C)C(C)=O)C(=O)N[C@@H](CC(N)=O)C(=O)N[C@@H](Cc3cccnc3)C(=O)N(C)CC(=O)N(C)C)CCOCC2)NC1=O` [compound 237, cPEG3aCO-Pen(3)-N(N(Me)2)-T-7MeW-K(NMeAc)-Pen(3)-AEF(NMePEG2a)-2Nal-THP-K(NMeAc)-N-3Pya-Sar-CON(Me)2] ({Me3N+(CH2)2O(CH2)2O(CH2)2CO}-[Pen]D(NMe2)T[Trp(7-Me)][Lys(Me)](Ac)[Pen]Y(X69)[2Nal][Thp][Lys(Me)](Ac)N[3Pal][Sar]-NMe2; disulfide 1-6), the EPSA amounted to 140 A^2.
In the case of `CC(=O)N(C)CCCC[C@@H]1NC(=O)[C@H](Cc2c[nH]c3c(C)cccc23)NC(=O)[C@H]([C@@H](C)O)NC(=O)[C@H](CC(=O)N(C)C)NC(=O)[C@@H](NC(=O)CCOCCNC(=N)N)C(C)(C)SSC(C)(C)[C@@H](C(=O)N[C@@H](Cc2ccc(OCCOCCOCC[N+](C)(C)C)cc2)C(=O)N[C@@H](Cc2ccc3ccccc3c2)C(=O)NC2(C(=O)N[C@@H](CCCCN(C)C(C)=O)C(=O)N[C@@H](CC(N)=O)C(=O)N[C@@H](Cc3cccnc3)C(=O)N(C)CC(=O)N(C)C)CCOCC2)NC1=O` [compound 413, cPEG2gCO-Pen(3)-N(N(Me)2)-T-7MeW-K(NMeAc)-Pen(3)-APEG3F-2Nal-THP-K(NMeAc)-N-3Pya-Sar-CON(Me)2] (X31-[Pen]D(NMe2)T[Trp(7-Me)][Lys(Me)](Ac)[Pen]Y(CH2CH2OCH2CH2OCH2CH2NMe3+)[2Nal][Thp][Lys(Me)](Ac)N[3Pal][Sar]-NMe2; disulfide 1-6) it was 154 A^2; in that of `CC(=O)N(C)CCCC[C@@H]1NC(=O)[C@H](Cc2c[nH]c3c(C)cccc23)NC(=O)[C@H]([C@@H](C)O)NC(=O)[C@H](CC(=O)N(C)C)NC(=O)[C@@H](NC(=O)CCOCCOCC[N+](C)(C)C)C(C)(C)SSC(C)(C)[C@@H](C(=O)N[C@@H](Cc2ccc(OCCCCCCCCC(=O)NCCOCCOCC[N+](C)(C)C)cc2)C(=O)N[C@@H](Cc2ccc3ccccc3c2)C(=O)NC2(C(=O)N[C@@H](CCCCN(C)C(C)=O)C(=O)N[C@@H](CC(N)=O)C(=O)N[C@@H](Cc3cccnc3)C(=O)N(C)CC(=O)N(C)C)CCOCC2)NC1=O` [compound 254, cPEG3aCO-Pen(3)-N(N(Me)2)-T-7MeW-K(NMeAc)-Pen(3)-YC8CO(NHPEG3a)-2Nal-THP-K(NMeAc)-N-3Pya-Sar-CON(Me)2] ({Me3N+(CH2)2O(CH2)2O(CH2)2CO}-[Pen]D(NMe2)T[Trp(7-Me)][Lys(Me)](Ac)[Pen]Y(X73)[2Nal][Thp][Lys(Me)](Ac)N[3Pal][Sar]-NMe2; disulfide 1-6), 144 A^2.
